Melting point data for 1 compound are collected here from US6353017B1, “Dipeptide nitriles” (Novartis AG, priority 1997, dated 2002).

Broadly, the melting point is the temperature of the solid-liquid transition.

In turn, `COC(=O)c1cccc(OCCC(C#N)NC(=O)[C@H](Cc2cccc(C)c2)NC(=O)C(c2ccccc2)c2ccccc2)c1` (stereo partly drawn) [Example 305, N-[3-(3-(methoxycarbonyl)-phenoxy)-1-cyanopropyl]-3-methyl-Nα-(2,2-diphenylacetyl)-L-phenylalaninamide] returned a melting point of 152 to 153 °C.
